Data published in patent US9968646B2, “Method for treatment of prostatic hyperplasia and/or ameliorating urinary disturbance with banana flower extract” (TCI Co., Ltd., priority 2014, dated 2018).

What was measured:
[1] = system: LNCap human prostate cancer cell lines; test: MTT survival rate of LNCap cells stimulated by testosterone; assay type: cell-based
Description: In one embodiment, LNCap human prostate cancer cell lines (BCRC 60088) purchased from Bioresource Collection and Research Center (BCRC) are used. 2×10^4 LNCap cells/well are placed in the 96-well plate and cultured for 24 hr. LNCap cells treated with testosterone and various concentrations (0.5 mg/mL and 2.0 mg/mL) of the banana flower extract, and co-cultured for 3 days. LNCap cells are treated with the banana flower extract without testosterone as negative control, and LNCap cells are treated with testosterone without the banana flower extract as vehicle control. The survival rate of LNCap cells is evaluated using the MTT assay, LNCap cells are treated with 1 mg/mL MTT (3-[4,5-dimethyl thiazol-2-yl]-2,5diphenyl tetrazolium bromide) for 2 hr, and dimethyl sulfoxide (DMSO) is added to dissolve blue formazan crystals. An absorbance is measured using a reader at the wavelength of 570 nm.

[2] = system: dihydrotestosterone synthesis in LNCap cells; test: Dihydrotestosterone level (ELISA) in LNCap cells stimulated by testosterone; assay type: cell-based, human; conditions: co-treatment of testosterone and 0.2 mg/mL finasteride; testosterone alone = 100%
Description: 1×10^5 LNCap cells/well are cultured with RPMI 1640 containing 10% FBS and 1% sodium pyruvate in 9-cm culture plate for 36 hr. […] And all LNCap cells are stimulated by 10 μg/mL testosterone.
Cell lysis is processed prior to analysis of dihydrotestosterone level: LNCap cells are dispersed with typsin and centrifuged to collect the suspension cells, the suspension cells are washed with cold PBS, and the suspension cells are resuspended in PBS(1×) and sonicated 4 times; or LNCap cells are frozen at −20° C. or lower, and stirred frequently until thawed for 3 times to destroy cells. The destroyed cells are centrifuged at 150× g at 2-8° C. for 10 min to remove the cell debris. Finally, dihydrotestosterone ELISA Kit (Uscn Life science Inc.) is used to detect dihydrotestosterone level.
LNCap cells are treated with the banana flower extract of the present invention and testosterone as above-mentioned method, LNCap cells treated with the banana flower extract without testosterone as negative control, and LNCap cells treated with testosterone without the banana flower extract as vehicle control, are detected dihydrotestosterone level. […] As co-treating with testosterone and the banana flower extract (2 mg/mL), the dihydrotestosterone synthesis rate of LNcap cells is decreased about 30%. […]

CC(C)(C)NC(=O)[C@H]1CC[C@H]2[C@@H]3CC[C@H]4NC(=O)C=C[C@]4(C)[C@H]3CC[C@]12C [finasteride]
LNcap cell proliferation stimulated by testosterone ([1]; co-treatment of testosterone and 0.2 mg/mL finasteride): slightly inhibit | reduction of dihydrotestosterone synthesis rate [2]: 10%

C[C@]12CC[C@H]3[C@@H](CCC4=CC(=O)CC[C@@]43C)[C@@H]1CC[C@@H]2O [testosterone]
survival rate of LNcap cells ([1]; testosterone alone, without testosterone = 100%): about 110%
